Among the data in US20240408085A1, “COMPOUND FOR DEGRADATION OF BCL-2 FAMILY PROTEINS AND MEDICAL APPLICATION THEREOF” (XIZANG HAISCO PHARMACEUTICAL CO., LTD., priority 2021, published 2024) are IC50 values, retold here.

Like-named read-outs stand apart in the source and are kept apart here.

The test deals with MOLT-4 cells. The test is described as follows: Cell proliferation activity in MOLT-4 cells (72 h, cell viability luminescence). The test is classed as cell-based, human. The following applies: read-out: IC50 for the inhibition of MOLT-4 cell proliferation. In short, it runs like this:
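Human acute lymphoblastic leukemia cells were seeded at 5×10^3 cells/well in RPMI-1640 with 10% FBS. They were treated with serially varied compound concentrations for 72 h at 37° C., 5% CO2. A luminescent viability reagent was used for read-out. IC50 was derived relative to vehicle control; maximum inhibition was the inhibition rate at the highest concentration.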

As to `Cc1ncsc1-c1ccc([C@H](C)NC(=O)[C@@H]2C[C@@H](O)CN2C(=O)[C@@H](NC(=O)CCCCCC(=O)N2C[C@@H]3C[C@H]2CN3CC[C@H](CSc2ccccc2)Nc2ccc(S(=O)(=O)NC(=O)c3ccc(N4CCN(CC5=C(c6ccc(Cl)cc6)CCC6(CC6)C5)CC4)cc3)cc2S(=O)(=O)C(F)(F)F)C(C)(C)C)cc1` [Compound 27, (2S,4R)-1-((S)-2-(7-((1S,4S)-5-((R)-3-((4-(N-(4-(4-((6-(4-chlorophenyl)spiro[2.5]oct-5-en-5-yl)methyl)piperazin-1-yl)benzoyl)sulfamoyl)-2-((trifluoromethyl)sulfonyl)phenyl)amino)-4-(phenylthio)butyl)-2,5-diazabicyclo[2.2.1]heptan-2-yl)-7-oxoheptanamido)-3,3-dimethylbutanoyl)-4-hydroxy-N—((S)-1-(4-(4-methylthiazol-5-yl)phenyl)ethyl)pyrrolidine-2-carboxamide], the IC50 (Homo sapiens) is less than 500 nM.

Turning to `Cc1ncsc1-c1ccc([C@H](C)NC(=O)[C@@H]2C[C@@H](O)CN2C(=O)[C@@H](NC(=O)CCCCCCC(=O)N2CCN(CC[C@H](CSc3ccccc3)Nc3ccc(S(=O)(=O)NC(=O)c4ccc(N5CCN(CC6=C(c7ccc(Cl)cc7F)CCC(C)(C)C6)CC5)cc4)cc3S(=O)(=O)C(F)(F)F)CC2)C(C)(C)C)cc1` [Compound 24, (2S,4R)-1-((S)-2-(8-(4-((R)-3-((4-(N-(4-(4-((4′-chloro-2′-fluoro-4,4-dimethyl-3,4,5,6-tetrahydro-[1,1′-biphenyl]-2-yl)methyl)piperazin-1-yl)benzoyl)sulfamoyl)-2-((trifluoromethyl)sulfonyl)phenyl)amino)-4-(phenylthio)butyl)piperazin-1-yl)-8-oxooctanamido)-3,3-dimethylbutanoyl)-4-hydroxy-N—((S)-1-(4-(4-methylthiazol-5-yl)phenyl)ethyl)pyrrolidine-2-carboxamide], the IC50 (Homo sapiens) is less than 500 nM.

`Cc1ncsc1-c1ccc([C@H](C)NC(=O)[C@@H]2C[C@@H](O)CN2C(=O)[C@@H](NC(=O)CCCCCCC(=O)N2C[C@H]3CN(CC[C@H](CSc4ccccc4)Nc4ccc(S(=O)(=O)NC(=O)c5ccc(N6CCN(CC7=C(c8ccc(Cl)cc8)CCC8(CC8)C7)CC6)cc5)cc4S(=O)(=O)C(F)(F)F)C[C@H]3C2)C(C)(C)C)cc1` [Compound 22, cis-(2S,4R)-1-((S)-2-(8-(5-((R)-3-((4-(N-(4-(4-((6-(4-chlorophenyl)spiro[2.5]oct-5-en-5-yl)methyl)piperazin-1-yl)benzoyl)sulfamoyl)-2-((trifluoromethyl)sulfonyl)phenyl)amino)-4-(phenylthio)butyl)hexahydropyrrolo[3,4-c]pyrrol-2(1H)-yl)-8-oxooctanamido)-3,3-dimethylbutanoyl)-4-hydroxy-N—((S)-1-(4-(4-methylthiazol-5-yl)phenyl)ethyl)pyrrolidine-2-carboxamide]: the IC50 (Homo sapiens) was less than 500 nM.

With `Cc1ncsc1-c1ccc([C@H](C)NC(=O)[C@@H]2C[C@@H](O)CN2C(=O)[C@@H](NC(=O)CCCCCCC(=O)N2C[C@@H]3C[C@H]2CN3CC[C@H](CSc2ccccc2)Nc2ccc(S(=O)(=O)NC(=O)c3ccc(N4CCN(CC5=C(c6ccc(Cl)cc6F)CCC6(CC6)C5)CC4)cc3)cc2S(=O)(=O)C(F)(F)F)C(C)(C)C)cc1` [Compound 30, (2S,4R)-1-((S)-2-(8-((1S,4S)-5-((R)-3-((4-(N-(4-(4-((6-(4-chloro-2-fluorophenyl)spiro[2.5]oct-5-en-5-yl)methyl)piperazin-1-yl)benzoyl)sulfamoyl)-2-((trifluoromethyl)sulfonyl)phenyl)amino)-4-(phenylthio)butyl)-2,5-diazabicyclo[2.2.1]heptan-2-yl)-8-oxooctanamido)-3,3-dimethylbutanoyl)-4-hydroxy-N—((S)-1-(4-(4-methylthiazol-5-yl)phenyl)ethyl)pyrrolidine-2-carboxamide], where the note is “Homo sapiens”, the IC50 is less than 500 nM.

Regarding `Cc1ncsc1-c1ccc([C@H](C)NC(=O)[C@@H]2C[C@@H](O)CN2C(=O)[C@@H](NC(=O)CCCCCC(=O)N2CCN(CC[C@H](CSc3ccccc3)Nc3ccc(S(=O)(=O)NC(=O)c4ccc(N5CCN(CC6=C(c7ccc(Cl)cc7F)CCCCC6)CC5)cc4)cc3S(=O)(=O)C(F)(F)F)CC2)C(C)(C)C)cc1` [Compound 35, (2S,4R)-1-((S)-2-(7-(4-((R)-3-((4-(N-(4-(4-((2-(4-chloro-2-fluorophenyl)cyclohept-1-en-1-yl)methyl)piperazin-1-yl)benzoyl)sulfamoyl)-2-((trifluoromethyl)sulfonyl)phenyl)amino)-4-(phenylthio)butyl)piperazin-1-yl)-7-oxoheptanamido)-3,3-dimethylbutanoyl)-4-hydroxy-N—((S)-1-(4-(4-methylthiazol-5-yl)phenyl)ethyl)pyrrolidine-2-carboxamide], under “Homo sapiens”, the IC50 was less than 500 nM.

With `Cc1ncsc1-c1ccc([C@H](C)NC(=O)[C@@H]2C[C@@H](O)CN2C(=O)[C@@H](NC(=O)CCCCCCC(=O)N2CCN(CC[C@H](CSc3ccccc3)Nc3ccc(S(=O)(=O)NC(=O)c4ccc(N5CCN(CC6=C(c7ccc(Cl)cc7F)CCC7(CC7)C6)CC5)cc4)cc3S(=O)(=O)C(F)(F)F)CC2)C(C)(C)C)cc1` [Compound 32, (2S,4R)-1-((S)-2-(8-(4-((R)-3-((4-(N-(4-(4-((6-(4-chloro-2-fluorophenyl)spiro[2.5]oct-5-en-5-yl)methyl)piperazin-1-yl)benzoyl)sulfamoyl)-2-((trifluoromethyl)sulfonyl)phenyl)amino)-4-(phenylthio)butyl)piperazin-1-yl)-8-oxoheptanamido)-3,3-dimethylbutanoyl)-4-hydroxy-N—((S)-1-(4-(4-methylthiazol-5-yl)phenyl)ethyl)pyrrolidine-2-carboxamide], the IC50 is less than 500 nM.

Turning to `Cc1ncsc1-c1ccc([C@H](C)NC(=O)[C@@H]2C[C@@H](O)CN2C(=O)[C@@H](NC(=O)CCCCCC(=O)N2C[C@H]3CN(CC[C@H](CSc4ccccc4)Nc4ccc(S(=O)(=O)NC(=O)c5ccc(N6CCN(CC7=C(c8ccc(Cl)cc8)CCCCC7)CC6)cc5)cc4S(=O)(=O)C(F)(F)F)C[C@H]3C2)C(C)(C)C)cc1` [Compound 41, cis-(2S,4R)-1-((S)-2-(7-(5-((R)-3-((4-(N-(4-(4-((2-(4-chlorophenyl)cyclohept-1-en-1-yl)methyl)piperazin-1-yl)benzoyl)sulfamoyl)-2-((trifluoromethyl)sulfonyl)phenyl)amino)-4-(phenylthio)butyl)hexahydropyrrolo[3,4-c]pyrrol-2(1H)-yl)-7-oxoheptanamido)-3,3-dimethylbutanoyl)-4-hydroxy-N—((S)-1-(4-(4-methylthiazol-5-yl)phenyl)ethyl)pyrrolidine-2-carboxamide], the IC50 (Homo sapiens) is less than 500 nM.

On to `Cc1ncsc1-c1ccc([C@H](C)NC(=O)[C@@H]2C[C@@H](O)CN2C(=O)[C@@H](NC(=O)CCCCCC(=O)N2CCN(CC[C@H](CSc3ccccc3)Nc3ccc(S(=O)(=O)NC(=O)c4ccc(N5CCN(CC6=C(c7ccc(Cl)cc7)CCCCC6)CC5)cc4)cc3S(=O)(=O)C(F)(F)F)CC2)C(C)(C)C)cc1` [Trifluoroacetate of compound 6, (2S,4R)-1-((S)-2-(7-(4-((R)-3-((4-(N-(4-(4-((2-(4-chlorophenyl)cyclohept-1-en-1-yl)methyl)piperazin-1-yl)benzoyl)sulfamoyl)-2-((trifluoromethyl)sulfonyl)phenyl)amino)-4-(phenylthio)butyl)piperazin-1-yl)-7-oxoheptanamido)-3,3-dimethylbutanoyl)-4-hydroxy-N—((S)-1-(4-(4-methylthiazol-5-yl)phenyl)ethyl)pyrrolidine-2-carboxamide], for which, where the note is “Homo sapiens”, the IC50 was less than 500 nM.
